Measurements reported in PubChem BioAssay (NCI).
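All cell lines were grown in 96-well plates and treated with compound for 48 hours. Definition used: TGI = concentration required for complete inhibition of growth.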

Key:
Assay in all cases: growth of human tumour cells (NCI), 48 h
786-0 renal = tested on: 786-0 renal
A549 NSCLC = tested on: A549 NSCLC
TK-10 renal = tested on: TK-10 renal
HCT-116 colon = tested on: HCT-116 colon
RPMI-8226 leukemia = tested on: RPMI-8226 leukemia
SF-295 CNS = tested on: SF-295 CNS
MDA-MB-231 breast = tested on: MDA-MB-231 breast
DU-145 prostate = tested on: DU-145 prostate
OVCAR-8 ovarian = tested on: OVCAR-8 ovarian
OVCAR-5 ovarian = tested on: OVCAR-5 ovarian
NCI-H226 lung = tested on: NCI-H226 lung
SNB-19 CNS = tested on: SNB-19 CNS

Row | Compound | TGI (786-0 renal) | TGI (A549 NSCLC) | TGI (TK-10 renal) | TGI (HCT-116 colon) | TGI (RPMI-8226 leukemia) | TGI (SF-295 CNS) | TGI (MDA-MB-231 breast) | TGI (DU-145 prostate) | TGI (OVCAR-8 ovarian) | TGI (OVCAR-5 ovarian) | TGI (NCI-H226 lung) | TGI (SNB-19 CNS)
1 | COC(=O)C1CC2(C)C=CC1N(C(=O)OCc1ccccc1)C2 (centres undefined) | > 100 µM | > 100 µM | > 100 µM | > 100 µM | > 100 µM | > 100 µM | > 100 µM | > 100 µM | > 100 µM | > 100 µM | > 100 µM | > 100 µM
2 | CC(C)(C)C1CCC2c3c([nH]c4ccccc34)C3C(=O)N(c4ccc(C#N)cc4)C(=O)C3C2C1 (centres undefined) | 33.7 µM | 63.5 µM | 63.4 µM | 18 µM | > 100 µM | > 100 µM | 35.2 µM | 35.7 µM | 45.6 µM | 56.8 µM | 42.1 µM | > 100 µM
3 | C=C(C(=O)O[C@H]1C/C(C)=C/CC/C(CO)=C/[C@H]2C(=O)OC(=C)[C@H]12)C(O)CO (some centres undefined) | 18.4 µM | 49.8 µM | 20.3 µM | 19.6 µM | 4.95 µM | > 60.8 µM | 33.3 µM | 33.4 µM | 40.1 µM | 33 µM | 37.7 µM | 43.3 µM
4 | CCCCc1ccc(Nc2ncc3ncn(COCCO)c3n2)cc1 | > 100 µM | > 100 µM | > 100 µM | 65.4 µM | 50 µM | 80.1 µM | 57.4 µM | > 100 µM | > 100 µM | > 100 µM | > 100 µM | > 100 µM
5 | N#CC(CCN1CCC(Nc2ccccc2)(c2nnnn2C2CCCCC2)CC1)(c1ccccc1)c1ccccc1 | > 100 µM | > 100 µM | > 100 µM | > 100 µM | > 100 µM | > 100 µM | > 100 µM | > 100 µM | > 100 µM | > 100 µM | > 100 µM | > 100 µM
6 | COC(=O)C1=C(OC(=O)/C(=C/c2ccccc2)c2ccc(OC)cc2)C(C(=O)OC)[C@@]2(O)[C@@H](C(=O)OC)[C@H](C)C[C@@H]1[C@@H]2C(=O)OC (some centres undefined) | > 100 µM | > 100 µM | > 100 µM | > 100 µM | > 100 µM | > 100 µM | 90.8 µM | > 100 µM | > 100 µM | > 100 µM | > 100 µM | > 100 µM
7 | N#CC1(C#N)C(C#N)(C#N)C1(C#N)C(N)=O | > 100 µM | > 100 µM | > 100 µM | > 100 µM | > 100 µM | > 100 µM | > 100 µM | > 100 µM | > 100 µM | > 100 µM | > 100 µM | > 100 µM
